# From PubChem BioAssay AID1963869 (Molecular Pharmacology Branch, DTP, NCI, 2024)
# pIC50: −log10 of the molar value. “And” between values parts separate entries of the source, which are not always exact repeats. Equal values may be shown once.
# System: KRAS patient-derived spheroids with HUVEC/MSC, viability
# Test: Anticancer human tumor 323965-272-R-J2-PDC patient-derived pancreatic carcinoma cell line growth inhibition [KRAS2]
# Conditions: for viability, T/C: stronger effect = lower value
# Outline: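 KRAS-mutant tumor cells were grown as spheroids with HUVEC endothelial cells and human MSCs as stroma. Targeted agents were tested alone and with KRAS pathway inhibitors. Doses started at or near clinical Cmax, or 10 microM, descending half-log.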
# [1] = curve of first compound, second compound 0.0316 µM
# [2] = curve of first compound, second compound 0.1 µM
# [3] = curve of first compound, second compound 0.316 µM
# [4] = curve of first compound, second compound 1 µM
# [5] = curve of first compound, second compound 3.16 µM
# [6] = second compound 0.0316 µM, first compound 0.00316 µM
# [7] = second compound 0.0316 µM, first compound 0.01 µM
# [8] = second compound 0.0316 µM, first compound 0.0316 µM
# [9] = second compound 0.1 µM, first compound 0.00316 µM
# [10] = second compound 0.1 µM, first compound 0.01 µM
# [11] = second compound 0.1 µM, first compound 0.0316 µM
# [12] = second compound 0.316 µM, first compound 0.00316 µM
# [13] = second compound 0.316 µM, first compound 0.01 µM
# [14] = second compound 0.316 µM, first compound 0.0316 µM
# [15] = second compound 1 µM, first compound 0.00316 µM
# [16] = second compound 1 µM, first compound 0.01 µM
# [17] = second compound 1 µM, first compound 0.0316 µM
# [18] = second compound 3.16 µM, first compound 0.00316 µM
# [19] = second compound 3.16 µM, first compound 0.01 µM
# [20] = second compound 3.16 µM, first compound 0.0316 µM
# 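Further: spheroids exposed to agents for 7 days.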
# 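Wherever viability, T/C is given: 100% = DMSO vehicle control viability.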
SMILES,pIC50 [1],pIC50 [2],pIC50 [3],pIC50 [4],pIC50 [5],"viability, T/C [6] [%]","viability, T/C [7] [%]","viability, T/C [8] [%]","viability, T/C [9] [%]","viability, T/C [10] [%]","viability, T/C [11] [%]","viability, T/C [12] [%]","viability, T/C [13] [%]","viability, T/C [14] [%]","viability, T/C [15] [%]","viability, T/C [16] [%]","viability, T/C [17] [%]","viability, T/C [18] [%]","viability, T/C [19] [%]","viability, T/C [20] [%]",also measured
C=CC(=O)N1CCN(c2nc(=O)n(-c3c(C)ccnc3C(C)C)c3nc(-c4c(O)cccc4F)c(F)cc23)C(C)C1 (stereo not drawn),–,–,–,–,–,–,–,–,–,–,–,–,–,–,–,–,–,–,–,–,"viability, T/C (compound 0.1 µM): 58.9% [middle of 17 runs]; viability, T/C (compound 0.316 µM): 58.4% [middle of 17 runs]; viability, T/C (compound 1 µM): 59.1% [middle of 17 runs]; viability, T/C (compound 3.16 µM): 60.4% [middle of 17 runs]; viability, T/C (compound 10 µM): 52% [middle of 17 runs]; pIC50 (compound alone, run of 08/19/2021): < 5.00 and 5.56; pIC50 (compound alone, run of 08/26/2021): < 5.00 and 5.11 and 5.02; pIC50 (compound alone, run of 09/02/2021): < 5.00"
CCN1CCN(Cc2ccc(Nc3ncc(F)c(-c4cc(F)c5nc(C)n(C(C)C)c5c4)n3)nc2)CC1 + C=CC(=O)N1CCN(c2nc(OCC3CCCN3C)nc3c2CCN(c2cccc4cccc(C)c24)C3)CC1CC#N,8.09,8.30,> 8.50,8.20,> 8.50,60.6,51.1,39.1,53.6,46,39.1,45,44.8,33.8,58.6,45.9,36.6,3,4.98,3.68,"viability, T/C (second compound 0.0316 µM, first compound 0.1 µM): 38.6%; viability, T/C (second compound 0.0316 µM, first compound 0.316 µM): 37.2%; viability, T/C (second compound 0.0316 µM, first compound 1 µM): 45.5%; viability, T/C (second compound 0.1 µM, first compound 0.1 µM): 31.2%; viability, T/C (second compound 0.1 µM, first compound 0.316 µM): 31.7%; viability, T/C (second compound 0.1 µM, first compound 1 µM): 44%; viability, T/C (second compound 0.316 µM, first compound 0.1 µM): 32.8%; viability, T/C (second compound 0.316 µM, first compound 0.316 µM): 31.9%; viability, T/C (second compound 0.316 µM, first compound 1 µM): 38.8%; viability, T/C (second compound 1 µM, first compound 0.1 µM): 28.8%; viability, T/C (second compound 1 µM, first compound 0.316 µM): 30.3%; viability, T/C (second compound 1 µM, first compound 1 µM): 36.1%; viability, T/C (second compound 3.16 µM, first compound 0.1 µM): 2.57%; viability, T/C (second compound 3.16 µM, first compound 0.316 µM): 3.48%; viability, T/C (second compound 3.16 µM, first compound 1 µM): 0.89%"
CC(=O)Nc1cccc(-n2c(=O)n(C3CC3)c(=O)c3c(Nc4ccc(I)cc4F)n(C)c(=O)c(C)c32)c1 + C=CC(=O)N1CCN(c2nc(OCC3CCCN3C)nc3c2CCN(c2cccc4cccc(C)c24)C3)CC1CC#N,8.77,9.19,9.59,9.44,> 10.00,44,34.1,23.9,35.4,32.1,22.7,31.6,27.4,18.8,37.2,28.3,18.9,22.4,4.06,5.52,"viability, T/C (second compound 0.0316 µM, first compound 0.0001 µM): 62.1%; viability, T/C (second compound 0.0316 µM, first compound 0.000316 µM): 63.8%; viability, T/C (second compound 0.0316 µM, first compound 0.001 µM): 53.4%; viability, T/C (second compound 0.1 µM, first compound 0.0001 µM): 64.4%; viability, T/C (second compound 0.1 µM, first compound 0.000316 µM): 56.8%; viability, T/C (second compound 0.1 µM, first compound 0.001 µM): 46.8%; viability, T/C (second compound 0.316 µM, first compound 0.0001 µM): 56.7%; viability, T/C (second compound 0.316 µM, first compound 0.000316 µM): 46.6%; viability, T/C (second compound 0.316 µM, first compound 0.001 µM): 43.6%; viability, T/C (second compound 1 µM, first compound 0.0001 µM): 56.6%; viability, T/C (second compound 1 µM, first compound 0.000316 µM): 53.8%; viability, T/C (second compound 1 µM, first compound 0.001 µM): 40%; viability, T/C (second compound 3.16 µM, first compound 0.0001 µM): 26%; viability, T/C (second compound 3.16 µM, first compound 0.000316 µM): 28.5%; viability, T/C (second compound 3.16 µM, first compound 0.001 µM): 17%"
